According to ChEMBL document CHEMBL1140414, “Molecular modeling, synthesis, and preliminary biological evaluation of glutathione-S-transferase inhibitors as potential therapeutic agents” (J Med Chem, 2005):

Columns and labels:
[1] = biological target: T1, Glutathione S-transferase P (Homo sapiens, UniProt P09211); experiment: Inhibition against glutathione S-transferase pi using GSH (0.1-3mM), 1 mM 1-chloro-2,4-dinitrobenzene
[2] = biological target: T1, Glutathione S-transferase P; experiment: Inhibition constant against glutathione S-transferase pi using GSH (0.1-3mM), 1 mM 1-chloro-2,4-dinitrobenzene

T1 sequence (P09211 whole entry): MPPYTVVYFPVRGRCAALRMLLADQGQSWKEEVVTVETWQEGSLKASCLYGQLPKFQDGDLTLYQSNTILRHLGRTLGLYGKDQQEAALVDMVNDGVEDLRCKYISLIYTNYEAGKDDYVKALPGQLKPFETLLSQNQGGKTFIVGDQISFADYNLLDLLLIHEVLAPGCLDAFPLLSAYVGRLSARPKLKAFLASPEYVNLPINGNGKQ

Row | Compound | IC50 [1] [µM] | Ki [2] [µM]
1 | NC(CCC(=O)NC(CSCC(O)c1ccccc1)C(=O)NCC(=O)O)C(=O)O (stereo not drawn) | 4.7 | 0.49
2 | NC(CCC(=O)NC(CSC(C(=O)O)c1ccccc1)C(=O)NCC(=O)O)C(=O)O (stereo not drawn) | 5.5 | 0.66
3 | NC(CCC(=O)NC(CSC(CO)c1ccccc1)C(=O)NCC(=O)O)C(=O)O (stereo not drawn) | 9 | 1.11
4 | NC(CCC(=O)NC(CSCCO)C(=O)NCC(=O)O)C(=O)O (stereo not drawn) | 280 | 187
